What is called IC50 is the concentration needed to halve the response being measured. Lower therefore signals greater potency.

Assay [1] concerns TGF-β signaling (TGF-β pSMAD, MPC-11). Put plainly: AlphaScreen SureFire SMAD3 (p-Ser423/425) assay, inhibition of TGF-β signaling. The class given is cell-based. To be noted: Mus musculus, MPC-11, inhibition of TGF-β signaling, p-SMAD3 readout. On the technique in general: Alpha assays give light when donor and acceptor beads are brought close together.
For assay [2], the system named is GDF8 signaling (GDF pSMAD, MPC11). Put plainly: AlphaScreen SureFire SMAD3 (p-Ser423/425) assay, inhibition of GDF8 signaling. It is filed as cell-based. To be noted: Mus musculus, MPC-11, inhibition of GDF8 signaling, p-SMAD3 readout.

`c1ccc(-c2nc[nH]c2-c2ccc3[nH]ncc3c2)cc1` [Compound 1, 5-(4-Phenyl-1H-imidazol-5-yl)-1H-indazole]: the figures for the IC50 in assay [1] and in assay [2] were 0.23 µM and 0.07 µM, respectively.

Regarding `c1ccc(-c2nc[nH]c2-c2ccc3cn[nH]c3c2)cc1` [Compound 2, 6-(4-Phenyl-1H-imidazol-5-yl)-1H-indazole], the figures for the IC50 in assay [1] and in assay [2] were 0.2 µM and 0.06 µM, respectively.

Turning to `Cc1cc(-c2nc[nH]c2-c2ccc3[nH]ncc3c2)ccc1F` [Compound 3, 5-(4-(4-Fluoro-3-methylphenyl)-1H-imidazol-5-yl)-1H-indazole], the IC50 in assay [1] and in assay [2] was 0.01 µM each time. In the case of `Cc1cc(-c2nc[nH]c2-c2ccc3cn[nH]c3c2)ccc1F` [Compound 4, 6-(4-(4-Fluoro-3-methylphenyl)-1H-imidazol-5-yl)-1H-indazole], the IC50 in assay [1] turned out to be 0.02 µM; in assay [2] it was 0.01 µM. The matching figures for `Clc1ccc(-c2nc[nH]c2-c2ccc3[nH]ncc3c2)cc1` [Compound 6, 5-(4-(4-Chlorophenyl)-1H-imidazol-5-yl)-1H-indazole]: 0.62 µM and 0.16 µM.

With `Cc1cc(-c2ncn(C)c2-c2ccc3ncn(C)c3c2)ccc1F` [Compound 8, 6-(4-(4-Fluoro-3-methylphenyl)-1-methyl-1H-imidazol-5-yl)-1-methyl-1H-benzo[d]imidazole], the IC50 in assay [1] stood at 0.21 µM; in assay [2], 0.09 µM. Turning to `Cc1cc(-c2ncn(C)c2-c2ccc3ncsc3c2)ccc1F` [Compound 9, 6-(4-(4-Fluoro-3-methylphenyl)-1-methyl-1H-imidazol-5-yl)benzo[d]thiazole], the half-inhibitory concentration (IC50) in assay [1] came out at 0.33 µM; in assay [2], 0.06 µM. The matching figures for `Fc1ccc(-c2nc[nH]c2-c2ccc3[nH]ncc3c2)cc1` [Compound 10, 5-(4-(4-Fluorophenyl)-1H-imidazol-5-yl)-1H-indazole]: 0.06 µM and 0.01 µM. On the same counts, the results for `Fc1ccc(-c2nc[nH]c2-c2ccc3cn[nH]c3c2)cc1` [Compound 11, 6-(4-(4-Fluorophenyl)-1H-imidazol-5-yl)-1H-indazole] are 0.13 µM and 0.04 µM. Take `Cn1cnc2ccc(-c3[nH]cnc3-c3ccc(F)cc3)cc21` [Compound 12, 6-(4-(4-Fluorophenyl)-1H-imidazol-5-yl)-1-methyl-1H-benzo[d]imidazole]: the values for the IC50 in assay [1] and in assay [2] were 0.27 µM and 0.13 µM, respectively.

For `Fc1ccc(-c2nc[nH]c2-c2ccc3ncsc3c2)cc1` [Compound 13, 6-(4-(4-Fluorophenyl)-1H-imidazol-5-yl)benzo[d]thiazole], the IC50 amounted to 0.38 µM in assay [1] and 0.12 µM in assay [2]. On the same counts, the results for `Fc1ccc(-c2nc[nH]c2-c2ccc3nccn3c2)cc1` [Compound 14, 6-(4-(4-Fluorophenyl)-1H-imidazol-5-yl)imidazo[1,2-a]pyridine] are 1.82 µM and 0.61 µM. On the same counts, the results for `Cc1cccc(-c2nc[nH]c2-c2ccc3[nH]ncc3c2)c1` [Compound 15, 5-(4-(m-Tolyl)-1H-imidazol-5-yl)-1H-indazole] are 0.06 µM and 0.01 µM. The matching figures for `Cc1cccc(-c2nc[nH]c2-c2ccc3cn[nH]c3c2)c1` [Compound 16, 6-(4-(m-Tolyl)-1H-imidazol-5-yl)-1H-indazole]: 0.1 µM and 0.02 µM. For the molecule `Cc1cccc(-c2nc[nH]c2-c2ccc3ncn(C)c3c2)c1` [Compound 17, 1-Methyl-6-(4-(m-tolyl)-1H-imidazol-5-yl)-1H-benzo[d]imidazole], the IC50 in assay [1] amounted to 0.14 µM; in assay [2], 0.05 µM.

As to `Cc1cccc(-c2nc[nH]c2-c2ccc3ncsc3c2)c1` [Compound 18, 6-(4-(m-Tolyl)-1H-imidazol-5-yl)benzo[d]thiazole], the figures for the IC50 in assay [1] and in assay [2] were 0.15 µM and 0.04 µM, respectively.

As for `Cc1cccc(-c2nc[nH]c2-c2ccc3nccn3c2)c1` [Compound 19, 6-(4-(m-Tolyl)-1H-imidazol-5-yl)imidazo[1,2-a]pyridine], the IC50 in assay [1] turned out to be 0.73 µM; in assay [2] it was 0.15 µM. The matching figures for `Cc1cccc(-c2nc[nH]c2-c2ccc3nccnc3c2)c1` [Compound 20, 6-(4-(m-Tolyl)-1H-imidazol-5-yl)quinoxaline]: 0.16 µM and 0.18 µM. On the same counts, the results for `Cc1cc(-c2ncn(C)c2-c2ccc3nccnc3c2)ccc1F` [Compound 21, 6-(4-(4-Fluoro-3-methylphenyl)-1-methyl-1H-imidazol-5-yl)quinoxaline] are 0.74 µM and 0.38 µM. `Clc1cccc(-c2nc[nH]c2-c2ccc3[nH]ncc3c2)c1` [Compound 22, 5-(4-(3-Chlorophenyl)-1H-imidazol-5-yl)-1H-indazole]: the IC50 in assay [1] worked out at 0.03 µM; in assay [2], 0.02 µM. On to `Clc1cccc(-c2nc[nH]c2-c2ccc3cn[nH]c3c2)c1` [Compound 23, 6-(4-(3-Chlorophenyl)-1H-imidazol-5-yl)-1H-indazole], for which the IC50 worked out at 0.03 µM in assay [1] and 0.01 µM in assay [2]. The matching figures for `Cn1cnc2ccc(-c3[nH]cnc3-c3cccc(Cl)c3)cc21` [Compound 24, 6-(4-(3-Chlorophenyl)-1H-imidazol-5-yl)-1-methyl-1H-benzo[d]imidazole]: 0.01 µM and 0.01 µM. For the molecule `Clc1cccc(-c2nc[nH]c2-c2ccc3ncsc3c2)c1` [Compound 25, 6-(4-(3-Chlorophenyl)-1H-imidazol-5-yl)benzo[d]thiazole], the IC50 stood at 0.06 µM in assay [1] and 0.04 µM in assay [2].

For the molecule `Clc1cccc(-c2nc[nH]c2-c2ccc3nccn3c2)c1` [Compound 26, 6-(4-(3-Chlorophenyl)-1H-imidazol-5-yl)imidazo[1,2-a]pyridine], the IC50 came to 0.26 µM in assay [1] and 0.22 µM in assay [2]. Take `Fc1cccc(-c2nc[nH]c2-c2ccc3[nH]ncc3c2)c1` [Compound 27, 5-(4-(3-Fluorophenyl)-1H-imidazol-5-yl)-1H-indazole]: the IC50 in assay [1] was 0.12 µM; in assay [2] it was 0.09 µM.

For `Fc1cccc(-c2nc[nH]c2-c2ccc3cn[nH]c3c2)c1` [Compound 28, 6-(4-(3-Fluorophenyl)-1H-imidazol-5-yl)-1H-indazole], the IC50 in assay [1] was 0.06 µM; in assay [2], 0.05 µM. `Cn1cnc2ccc(-c3[nH]cnc3-c3cccc(F)c3)cc21` [Compound 29, 6-(4-(3-Fluorophenyl)-1H-imidazol-5-yl)-1-methyl-1H-benzo[d]imidazole]: in assay [2], the midpoint of inhibition, the IC50, lay at 0.29 µM. In the case of `Fc1cccc(-c2nc[nH]c2-c2ccc3ncsc3c2)c1` [Compound 30, 6-(4-(3-Fluorophenyl)-1H-imidazol-5-yl)benzo[d]thiazole], the IC50 was 0.32 µM in assay [1] and 0.27 µM in assay [2].

For `Fc1ccc(-c2nc[nH]c2-c2ccc3[nH]ncc3c2)cc1F` [Compound 31, 5-(4-(3,4-Difluorophenyl)-1H-imidazol-5-yl)-1H-indazole], the IC50 in assay [1] is 0.09 µM; in assay [2] it was 0.02 µM.

`Fc1ccc(-c2nc[nH]c2-c2ccc3cn[nH]c3c2)cc1F` [Compound 32, 6-(4-(3,4-Difluorophenyl)-1H-imidazol-5-yl)-1H-indazole]: the half-inhibitory concentration (IC50) in assay [1] was determined as 0.14 µM; in assay [2] it was 0.05 µM.
